Data set [1] can be described thus: Liver microsome stability, rat. The conditions noted are these: Rat liver microsomes (#). The class given is in vitro ADME. For orientation: Liver microsomes are a subcellular fraction often used to study metabolism.
In data set [2] the test system is eIF4E phosphorylation at serine 209 in various tumor cell lines. The conditions noted are these: cited from earlier work.
Data set [3] is described as follows: Liver microsome stability, mouse. Format: in vitro ADME. Particulars: mouse liver microsomes, Table 11b.
Data set [4] addresses T1, death-associated protein kinase-related apoptosis-inducing protein kinase 1 (DRAK1) (Homo sapiens, UniProt Q9UEE5).
T1 sequence (Q9UEE5 1-414): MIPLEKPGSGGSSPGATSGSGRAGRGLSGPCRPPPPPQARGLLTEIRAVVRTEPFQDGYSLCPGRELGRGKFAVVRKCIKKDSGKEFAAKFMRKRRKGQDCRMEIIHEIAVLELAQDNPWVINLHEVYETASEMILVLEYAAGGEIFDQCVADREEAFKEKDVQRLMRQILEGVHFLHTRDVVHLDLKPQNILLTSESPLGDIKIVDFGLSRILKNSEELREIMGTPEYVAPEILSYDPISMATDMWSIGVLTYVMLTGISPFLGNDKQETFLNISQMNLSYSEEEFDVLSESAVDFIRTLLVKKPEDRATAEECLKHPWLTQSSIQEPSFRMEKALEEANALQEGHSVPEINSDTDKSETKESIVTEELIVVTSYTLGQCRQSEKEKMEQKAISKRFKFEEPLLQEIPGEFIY
The data set can be described thus: Off-target kinase screen DRAK1. The class given is biochemical. The conditions noted are these: 1 μM test compound. An excerpt: (§1) These kinases were chosen because they are the only known off-target hit kinases for eFT508. These assays were done using recombinant human kinases (CLK4, DRAK1 and PKG2) in a substrate phosphorylation assay. % activity remaining after MNK inhibitor treatment is indicated in Table 12.

Data set [5] addresses Cdc2-like kinase 4 (CLK4) (Homo sapiens, UniProt Q9HAZ1). The data set is described as follows: Off-target kinase screen CLK4. Format: biochemical. Particulars: 1 μM test compound.
Source text: as §1

For data set [6], the system named is diffuse large B cell lymphoma (DLBCL) cell lines. Particulars: multiple DLBCL cell lines; cited from earlier work.
Data set [7] deals with T2, protein kinase G 2 (PKG2) (Homo sapiens, UniProt Q13237).
T2 sequence (Q13237 1-762): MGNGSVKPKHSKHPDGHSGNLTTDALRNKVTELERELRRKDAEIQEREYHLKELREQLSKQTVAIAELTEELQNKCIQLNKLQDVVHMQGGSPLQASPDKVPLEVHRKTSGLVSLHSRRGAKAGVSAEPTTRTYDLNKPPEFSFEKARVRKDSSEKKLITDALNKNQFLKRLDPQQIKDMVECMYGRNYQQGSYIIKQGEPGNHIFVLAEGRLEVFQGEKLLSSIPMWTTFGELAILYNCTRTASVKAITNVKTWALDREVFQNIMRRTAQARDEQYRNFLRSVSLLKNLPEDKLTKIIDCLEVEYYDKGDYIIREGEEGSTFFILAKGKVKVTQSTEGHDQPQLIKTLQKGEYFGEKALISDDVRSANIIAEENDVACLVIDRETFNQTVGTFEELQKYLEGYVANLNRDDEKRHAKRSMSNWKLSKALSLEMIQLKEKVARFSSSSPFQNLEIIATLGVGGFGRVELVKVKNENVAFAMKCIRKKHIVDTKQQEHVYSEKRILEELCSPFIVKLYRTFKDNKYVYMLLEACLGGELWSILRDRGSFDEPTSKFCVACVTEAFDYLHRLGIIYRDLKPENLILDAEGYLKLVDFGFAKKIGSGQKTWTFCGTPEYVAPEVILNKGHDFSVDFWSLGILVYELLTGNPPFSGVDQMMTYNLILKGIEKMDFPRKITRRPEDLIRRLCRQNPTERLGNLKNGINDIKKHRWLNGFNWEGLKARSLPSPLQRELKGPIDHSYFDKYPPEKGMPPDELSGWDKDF
The data set is described as follows: Off-target kinase screen PKG2. Format: biochemical. Particulars: 1 μM test compound.
Source text: as §1

Data set [8] is described as follows: Liver microsome stability, human. The class given is in vitro ADME. The conditions noted are these: liver microsomes.
The subject of data set [9] is P-gp (human MDR1, ABCB1). The data set is described as follows: MDCK-MDR1 permeability (blood brain barrier permeability). The class given is in vitro ADME, Canine. Particulars: dog, 5 μM, average of two experiments.
In data set [10] the test system is IL-6 evoked grimace. The data set can be described thus: IL-6 evoked grimace test. The class given is in vivo, ICR mice. As to the method: Institute for Cancer Research (ICR) mice were used in these experiments. Mice were bred in house at University of Texas at Dallas and used at between 12 and 24 weeks of age. Mice were habituated to plexiglass boxes of approximately 4×6 inches in size with openable tops. Habituation took place over 2 days with animals exposed to the boxes for at least 30 min. A blinded observer scored baseline grimacing using the method previously described by Mogil and colleagues (Langford, et al., Coding of facial expressions of pain in the laboratory mouse. Nat Methods (2010) 7:447-449.). On test day, mice were given test compounds 1 hr prior to injection of interleukin 6 (human recombinant IL-6, R&D Systems) which was given at a dose of 0.1 ng in saline via an intraplantar injection as described previously (Moy et al. The MNK-eIF4E Signaling Axis Contributes to Injury-Induced Nociceptive Plasticity and the Development of Chronic Pain. J Neurosci (2017) 37:7481-7499.). Test compounds were given orally (PO) via a flexible oral gavage canula built for mice. 4ET-01-021 (10.0, 3.0, and 1.0 mg/kg) and 4ET-03-052B (10.0 mg/kg) are efficacious in the IL-6 evoked grimace test in mice. FIG. 5 depicts a comparison of effect size in the IL-6 evoked grimace test. Effect sizes were calculated per mouse by subtracting the baseline grimace score from the sum of the grimace scores for 1 and 3 hr time points. […] FIG. 6 is a graph showing the effect size in the IL-6 evoked grimace test vs. dose of 4ET-01-021.

For data set [11], the system named is MDCK-MDR1. The data set can be described thus: MDCK-MDR1 permeability (blood brain barrier permeability). The conditions noted are these: 5 μM. Format: in vitro ADME, Canine.
Data set [12] addresses MNK1 (Homo sapiens, UniProt Q9BUB5). The data set can be described thus: MNK1 substrate phosphorylation assay. Particulars: recombinant human kinase. The class given is biochemical.
In data set [13] the test system is eIF4E phosphorylation at Serine 209 in the human embryonic kidney (HEK) 293 cell line. The data set is described as follows: eIF4E phosphorylation in HEK 293 cells (fluorescent plate reader). Format: cell-based. Particulars: eIF4E phosphorylation at Serine 209, 2 hours exposure. In a few lines: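 HEK-293 cells were treated with compound for 2 h, then methanol-fixed and Triton-permeabilized. Ser209 phospho-eIF4E was stained with primary antibody (1:2000, overnight) and an Alexa Fluor 488 secondary. Fluorescence was normalized to DAPI, and IC50 was fitted from concentration-response data.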

The target in data set [14] is MNK2 (Homo sapiens, UniProt Q9HBH9). The data set can be described thus: MNK2 substrate phosphorylation assay. The class given is biochemical. Particulars: recombinant human kinase.

As a reminder, the IC50 is the concentration that gives 50% inhibition. The term Papp A→B denotes how fast a substance crosses the layer from the apical side. Low values mean poor permeation, high ones ready permeation. As usually defined, the Papp B→A is how fast a substance crosses the layer from the basolateral side.

Structures are written as SMILES.

MNK2, sequence (Q9HBH9 whole entry): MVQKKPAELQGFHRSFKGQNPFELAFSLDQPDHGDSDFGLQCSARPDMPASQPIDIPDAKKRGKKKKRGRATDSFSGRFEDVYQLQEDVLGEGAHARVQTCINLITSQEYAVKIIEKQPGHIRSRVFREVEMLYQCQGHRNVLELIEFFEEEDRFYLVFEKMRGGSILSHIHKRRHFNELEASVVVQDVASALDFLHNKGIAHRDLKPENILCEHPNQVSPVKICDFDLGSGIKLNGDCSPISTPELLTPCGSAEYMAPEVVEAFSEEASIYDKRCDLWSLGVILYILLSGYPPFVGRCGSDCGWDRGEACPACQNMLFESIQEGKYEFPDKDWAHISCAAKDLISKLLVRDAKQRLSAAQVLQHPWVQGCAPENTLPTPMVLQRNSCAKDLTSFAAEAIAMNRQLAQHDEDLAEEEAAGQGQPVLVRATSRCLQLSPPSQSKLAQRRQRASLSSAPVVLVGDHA
MNK1, sequence (Q9BUB5 whole entry): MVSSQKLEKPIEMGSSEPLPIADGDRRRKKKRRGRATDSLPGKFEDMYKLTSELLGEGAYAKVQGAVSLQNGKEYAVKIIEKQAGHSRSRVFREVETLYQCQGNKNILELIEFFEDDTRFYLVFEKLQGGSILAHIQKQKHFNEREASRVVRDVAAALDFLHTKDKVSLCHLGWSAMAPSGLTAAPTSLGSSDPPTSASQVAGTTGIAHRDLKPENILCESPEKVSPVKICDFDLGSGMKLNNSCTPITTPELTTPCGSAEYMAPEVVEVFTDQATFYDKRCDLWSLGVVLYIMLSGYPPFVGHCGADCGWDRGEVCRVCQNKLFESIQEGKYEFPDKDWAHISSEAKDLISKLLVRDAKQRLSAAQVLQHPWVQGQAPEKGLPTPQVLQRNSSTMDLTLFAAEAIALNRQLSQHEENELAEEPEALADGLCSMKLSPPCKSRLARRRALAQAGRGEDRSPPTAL
Cdc2-like kinase 4 (CLK4), sequence (Q9HAZ1 whole entry): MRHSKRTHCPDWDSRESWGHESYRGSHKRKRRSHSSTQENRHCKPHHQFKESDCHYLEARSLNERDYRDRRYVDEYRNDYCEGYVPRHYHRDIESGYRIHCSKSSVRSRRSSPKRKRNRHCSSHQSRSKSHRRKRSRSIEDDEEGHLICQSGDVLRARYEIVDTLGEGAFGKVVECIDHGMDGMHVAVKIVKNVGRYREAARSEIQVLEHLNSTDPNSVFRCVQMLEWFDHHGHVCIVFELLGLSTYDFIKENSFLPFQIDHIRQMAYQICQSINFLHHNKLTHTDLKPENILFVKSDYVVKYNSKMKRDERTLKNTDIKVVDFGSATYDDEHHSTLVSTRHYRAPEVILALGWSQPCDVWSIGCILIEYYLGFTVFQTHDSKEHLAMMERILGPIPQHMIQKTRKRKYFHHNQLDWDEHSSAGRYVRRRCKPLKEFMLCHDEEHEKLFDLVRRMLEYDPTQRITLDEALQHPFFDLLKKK

In the case of `Cc1cc(Nc2cc(N)ncn2)c(=O)n2c1C(=O)NC21CCCCC1` [eFT508, reference compound], the microsomal CLint was 2.86 µL/min/mg in data set [1] (read-out: CLint rodent) and 1.88 µL/min/mg in data set [8]. Also, the half-life in data set [1] (read-out: Rodent liver microsomes t1/2) stood at 8.07 h; in [3] (mouse, liver microsomes, read-out: T1/2) it was 8.07 h; in data set [8] (read-out: Human liver microsomes t1/2), 12.3 h. Further, in [2], the IC50 is 2 to 16 nM. Further, the values for the remaining activity at 1 µM in data set [4], in data set [5] and in [7] were 24%, 68% and 100%, respectively. The anti-proliferative activity result in data set [6] is on record as “anti-proliferative activity”. Besides, the Papp A→B at 5 μM in data set [9] (MDCK-MDR1, Apical to basolateral transport) is 26.8 ×10⁻⁶ cm/s. In [9] (MDCK-MDR1, Basolateral to apical transport), this compound gave a Papp B→A at 5 μM of 41.7 ×10⁻⁶ cm/s.
As for `Cc1cc(Nc2cc(NC(=O)C3CC3)ncn2)c(=O)n2c1C(=O)NC21Cc2ccccc2[C@@H]1F` (single isomer, unassigned) [Compound 4ET-03-052B, N-(6-((1′-Fluoro-8-methyl-1,5-dioxo-1,1′,3′,5-tetrahydro-2H-spiro[imidazo[1,5-a]pyridine-3,2′-inden]-6-yl)amino)pyrimidin-4-yl)cyclopropanecarboxamide], in data set [3], the T1/2 came out at 2.88 h. In data set [10] (PO 1 hr prior to IL-6, 4ET-01-021 10.0, 3.0 and 1.0 mg/kg, 4ET-03-052B 10.0 mg/kg), the “efficacy in the IL-6 evoked grimace test” value is “efficacious”. In data set [10] (sum of grimace scores at 1 and 3 hr minus baseline), the “effect size in the IL-6 evoked grimace test” value is listed as “statistically-significant effect sizes”. For the same compound, in [11], the “Efflux ratio (ratio B-A/A-B)” value is 2.8. In addition, in data set [11] (Apical to basolateral transport, average of two experiments), the “Papp A-B” value is 22.9 ×10⁻⁶ cm/s. Further, the “Papp B-A” value in [11] (Basolateral to apical transport, average of two experiments) worked out at 63.3 ×10⁻⁶ cm/s. Moreover, the IC50 turned out to be 19.9 nM in [12], 11.7 nM in [13] and 1.63 nM in data set [14].
